Source: ChEMBL document CHEMBL5331091, “Design, synthesis and evaluation of antitumor activity of selective PRMT6 inhibitors” (Eur J Med Chem, 2023)

Key:
HCC827 [1] = assay: Induction of apoptosis in human HCC827 cells assessed as necrotic cells at 40 uM for 3 days by Annexin V and PI staining based flow cytometric analysis (reference value: 0.65%); assay type: functional; conditions: time 3 day
MDA-MB-435 [2] = assay: Induction of apoptosis in human MDA-MB-435 cells assessed as early apoptotic cells at 40 uM for 3 days by Annexin V and PI staining based flow cytometric analysis (reference value: 0.38%); assay type: functional; conditions: time 3 day
MDA-MB-435 [3] = assay: Antiproliferative activity against human MDA-MB-435 cells for 7 days by MTT assay; conditions: MDA-MB-435, 168 h
HCC827 [4] = assay: Induction of apoptosis in human HCC827 cells assessed as late apoptotic cells at 40 uM for 3 days by Annexin V and PI staining based flow cytometric analysis (reference value: 0.05%); assay type: functional; conditions: time 3 day
HCC827 [5] = assay: Antiproliferative activity against human HCC827 cells for 3 days by MTT assay; conditions: HCC827, 72 h
HCC827 [6] = assay: Induction of apoptosis in human HCC827 cells assessed as early apoptotic cells at 40 uM for 3 days by Annexin V and PI staining based flow cytometric analysis (reference value: 0.44%); assay type: functional; conditions: time 3 day
MDA-MB-435 [7] = assay: Antiproliferative activity against human MDA-MB-435 cells for 5 days by MTT assay; conditions: MDA-MB-435, 120 h
HCC827 [8] = assay: Antiproliferative activity against human HCC827 cells for 7 days by MTT assay; conditions: HCC827, 168 h
MDA-MB-435 [9] = assay: Antiproliferative activity against human MDA-MB-435 cells for 3 days by MTT assay; conditions: MDA-MB-435, 72 h
MDA-MB-435 [10] = assay: Induction of apoptosis in human MDA-MB-435 cells assessed as necrotic cells at 40 uM for 3 days by Annexin V and PI staining based flow cytometric analysis (reference value: 0.61%); assay type: functional; conditions: time 3 day
MDA-MB-435 [11] = assay: Induction of apoptosis in human MDA-MB-435 cells assessed as late apoptotic cells at 40 uM for 3 days by Annexin V and PI staining based flow cytometric analysis (reference value: 0.45%); assay type: functional; conditions: time 3 day
HCC827 [12] = assay: Antiproliferative activity against human HCC827 cells for 5 days by MTT assay; conditions: HCC827, 120 h
[13] = target: Protein arginine N-methyltransferase 6 (Homo sapiens, UniProt Q96LA8)
Chain of Protein arginine N-methyltransferase 6 (Q96LA8 whole entry): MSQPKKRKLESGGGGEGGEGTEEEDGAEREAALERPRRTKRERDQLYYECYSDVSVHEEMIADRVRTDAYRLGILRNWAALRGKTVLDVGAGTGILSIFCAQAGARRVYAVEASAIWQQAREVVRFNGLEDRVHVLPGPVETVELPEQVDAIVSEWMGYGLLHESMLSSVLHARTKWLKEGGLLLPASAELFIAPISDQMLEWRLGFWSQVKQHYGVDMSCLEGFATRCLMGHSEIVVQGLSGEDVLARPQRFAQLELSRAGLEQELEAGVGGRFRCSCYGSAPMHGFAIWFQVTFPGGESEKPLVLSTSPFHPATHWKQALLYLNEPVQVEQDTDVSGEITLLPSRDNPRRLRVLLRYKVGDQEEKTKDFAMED
Description: Inhibition of PRMT6 (unknown origin) by AlphaLISA assay in vitro assay

IC50 [13] [µM] | Compound | further results
0.0071 | CNCCN(C)Cc1c[nH]nc1-c1ccc(O[C@H]2C[C@H](OCCC3CCOCC3)C2)cc1 | Activity (HCC827 [1]): 3.65%; Activity (MDA-MB-435 [2]): 0.93%; IC50 (MDA-MB-435 [3]): 1.1 µM; Activity (HCC827 [4]): 6.69%; IC50 (HCC827 [5]): > 100 µM; Activity (HCC827 [6]): 3.11%; IC50 (MDA-MB-435 [7]): 90.4 µM; IC50 (HCC827 [8]): 4.15 µM; IC50 (MDA-MB-435 [9]): 94.7 µM; Activity (MDA-MB-435 [10]): 0.64%; Activity (MDA-MB-435 [11]): 2.82%; IC50 (HCC827 [12]): 8.57 µM
> 5 | CN(CCN)Cc1cncc(-c2cccc(NS(=O)(=O)c3cccs3)c2)c1 | 
5.24 | CN(CCN)Cc1cncc(-c2ccc(CN3CCOCC3)cc2)c1 | 
> 5 | CNCCN(C)Cc1cncc(-c2cccc(NS(=O)(=O)c3ccc(C)cc3)c2)c1 | 
0.684 | CNCCN(C)Cc1cncc(-c2cccc(NS(=O)(=O)C(F)(F)F)c2)c1 | 
2.57 | CNCCN(C)Cc1cncc(-c2cccc(NS(=O)(=O)c3cccs3)c2)c1 | 
> 5 | CNCCN(C)Cc1cncc(-c2cccc(N(S(=O)(=O)c3ccc(C(F)(F)F)cc3)S(=O)(=O)c3ccc(C(F)(F)F)cc3)c2)c1 | 
> 5 | CNCCN(C)Cc1cncc(-c2cccc(NS(=O)(=O)c3ccc([N+](=O)[O-])cc3)c2)c1 | 
> 5 | CN(CCN)Cc1cncc(-c2cccc(NS(=O)(=O)c3ccc([N+](=O)[O-])cc3)c2)c1 | 
> 5 | NCCNC(=O)c1cncc(-c2ccc(NS(=O)(=O)C3CC3)cc2)c1 | 
2.97 | CN(CCN)Cc1cncc(-c2cccc(NS(=O)(=O)C3CC3)c2)c1 | 
6.36 | CN(CCN)Cc1cncc(-c2ccc(OC(F)(F)F)cc2)c1 | 
1.06 | CNCCN(C)Cc1cc(-c2ccc(NS(=O)(=O)C3CC3)cc2)ccn1 | 
0.213 | CNCCN(C)Cc1cncc(-c2ccc(NS(=O)(=O)C(F)(F)F)cc2)c1 | 
> 5 | CNCCN(C)C(=O)c1cncc(-c2ccc(NS(=O)(=O)C3CC3)cc2)c1 | 
2.83 | CNCCN(C)Cc1cncc(-c2cccc(NS(=O)(=O)N(C)C)c2)c1 | 
4.4 | CN(CCN)Cc1cncc(-c2cccc(NS(=O)(=O)N(C)C)c2)c1 | 
> 5 | CN(CCN)Cc1cncc(-c2cccc(NS(=O)(=O)c3cnn(C)c3)c2)c1 | 

IC50 [13] [µM] | Compound | further results
1.35 | CNCCN(C)Cc1cncc(-c2ccc(NC(=O)N3CCOCC3)cc2)c1 | 
1.54 | CNCCN(C)Cc1cncc(-c2cccc(NC(=O)N3CCOCC3)c2)c1 | 
> 10 | COc1cc(OC)cc(-c2cncc(CN(C)CCN)c2)c1 | 
> 5 | CNCCN(C)Cc1cncc(-c2cccc(NS(=O)(=O)c3ccc(C(F)(F)F)cc3)c2)c1 | 
> 5 | CNCCNC(=O)c1cncc(-c2ccc(NS(=O)(=O)C3CC3)cc2)c1 | 
0.03 | CNCCN(C)Cc1ccnc(-c2ccc(NS(=O)(=O)C3CC3)cc2)c1 | 
3.09 | CNCCN(C)Cc1ccncc1-c1ccc(NS(=O)(=O)C2CC2)cc1 | 
> 5 | CN(CCN)C(=O)c1cncc(-c2ccc(NS(=O)(=O)C3CC3)cc2)c1 | 
1.05 | CNCCN(C)Cc1cncc(-c2cccc(NS(=O)(=O)c3ccccc3C)c2)c1 | 
1.8 | CN(CCN)Cc1cncc(-c2ccc(NS(=O)(=O)C3CC3)cc2)c1 | 
> 5 | CNCCN(C)Cc1cncc(-c2cccc(N(S(=O)(=O)c3ccccc3C)S(=O)(=O)c3ccccc3C)c2)c1 | 
1.59 | CNCCN(C)Cc1cncc(-c2cccc(NC(=O)C(C)C)c2)c1 | 
> 5 | CNCCN(C)Cc1cncc(-c2cccc(NS(=O)(=O)c3cnn(C)c3)c2)c1 | 
> 5 | CNCCN(C)Cc1cncc(-c2cccc(NS(=O)(=O)Cc3ccccc3)c2)c1 | 
> 5 | CNCCN(C)C(=O)c1cncc(-c2cccc(NS(=O)(=O)C3CC3)c2)c1 | 
0.262 | CNCCN(C)Cc1cncc(-c2cccc(NS(=O)(=O)C3CC3)c2)c1 | 
2.18 | Nc1ncnc2c1ncn2[C@@H]1O[C@H](CSCC[C@H](N)C(=O)O)[C@@H](O)[C@H]1O [S-ADENOSYLHOMOCYSTEINE] | 
